The values that follow come from ChEMBL document CHEMBL4602692, “Synthesis and Biological Evaluation of Tryptamines Found in Hallucinogenic Mushrooms: Norbaeocystin, Baeocystin, Norpsilocin, and Aeruginascin” (J Nat Prod, 2020).

Activity calls are given as the source filed them. The rule behind the calls is not given here.

In experiment [1] the target is 5-hydroxytryptamine receptor 2A (Mus musculus) (UniProt P35363). The experiment can be described thus: Agonist activity at mouse 5-HT2A receptor expressed in Flp-In T-REx 293 cells assessed as induction of Gq-mediated calcium flux incubated for 1 hr by Flou4-AM dye based FLIPR assay relative to serotonin. Type of experiment: functional, cell-based. (Calcium flux is commonly read through the fluorescence of an indicator in the cells.)
Sequence of 5-hydroxytryptamine receptor 2A (Mus musculus) (P35363 whole entry): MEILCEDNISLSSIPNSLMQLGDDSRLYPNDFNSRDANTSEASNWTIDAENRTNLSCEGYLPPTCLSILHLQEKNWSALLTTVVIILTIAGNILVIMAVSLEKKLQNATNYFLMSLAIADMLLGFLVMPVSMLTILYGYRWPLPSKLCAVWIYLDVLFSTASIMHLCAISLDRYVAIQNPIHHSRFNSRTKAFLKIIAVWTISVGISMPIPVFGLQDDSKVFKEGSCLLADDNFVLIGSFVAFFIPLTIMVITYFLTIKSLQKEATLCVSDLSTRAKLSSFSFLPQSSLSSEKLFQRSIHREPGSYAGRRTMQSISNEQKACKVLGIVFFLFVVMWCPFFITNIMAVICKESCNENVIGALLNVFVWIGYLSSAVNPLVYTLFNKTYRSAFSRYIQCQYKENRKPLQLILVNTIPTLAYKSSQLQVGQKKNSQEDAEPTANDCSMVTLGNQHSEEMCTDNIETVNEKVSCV

Experiment [2] concerns the target 5-hydroxytryptamine receptor 2A (Mus musculus, UniProt P35363). The experiment is described as follows: Agonist activity at mouse 5-HT2A receptor expressed in Flp-In T-REx 293 cells assessed as induction of Gq-mediated calcium flux incubated for 1 hr by Flou4-AM dye based FLIPR assay. Type of experiment: functional, cell-based.
Experiment [3] concerns the target 5-hydroxytryptamine receptor 2A (Homo sapiens) (UniProt P28223). The experiment can be described thus: Agonist activity at human 5-HT2A receptor expressed in Flp-In T-REx 293 cells assessed as induction of Gq-mediated calcium flux incubated for 1 hr by Flou4-AM dye based FLIPR assay relative to serotonin. It is filed as functional, cell-based.
The test system of experiment [4] is Mus musculus. The experiment can be described thus: Induction of head-twitch response in C57BL/6J mouse at 0.03 to 3 mg/kg, ip measured for 20 mins. Type of experiment: functional, organism-based.
Experiment [5] concerns Mus musculus. The experiment can be described thus: Induction of head-twitch response in ip dosed C57BL/6J mouse measured for 20 mins. It is filed as functional.

Sequence of 5-hydroxytryptamine receptor 2A (P35363 whole entry): as above
Sequence of 5-hydroxytryptamine receptor 2A (Homo sapiens) (P28223 whole entry): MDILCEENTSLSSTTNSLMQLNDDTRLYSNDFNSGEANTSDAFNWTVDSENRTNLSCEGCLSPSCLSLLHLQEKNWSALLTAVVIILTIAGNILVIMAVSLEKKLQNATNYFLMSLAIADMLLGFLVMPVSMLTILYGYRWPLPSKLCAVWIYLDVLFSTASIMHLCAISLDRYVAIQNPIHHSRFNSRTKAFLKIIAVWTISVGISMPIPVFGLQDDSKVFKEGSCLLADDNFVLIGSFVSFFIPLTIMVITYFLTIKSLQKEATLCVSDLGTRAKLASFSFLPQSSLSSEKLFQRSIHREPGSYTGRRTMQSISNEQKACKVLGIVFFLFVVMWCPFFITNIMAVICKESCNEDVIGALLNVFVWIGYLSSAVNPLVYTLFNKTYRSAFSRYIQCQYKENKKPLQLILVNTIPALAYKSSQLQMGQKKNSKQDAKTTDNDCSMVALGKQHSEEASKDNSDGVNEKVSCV

As for `CNCCc1c[nH]c2cccc(O)c12`, the Emax (in general, the size of the effect at its maximum, as opposed to the concentration needed) in experiment [1] amounted to 99%; in experiment [3], 93%. Moreover, the EC50 (as a rule, the concentration needed to bring the measured effect to its halfway point) in experiment [2] amounted to 19 nM.
Turning to `CNCCc1c[nH]c2cccc(OP(=O)(O)O)c12`, the outcome in experiment [4] was inactive.
For the compound `CN(C)CCc1c[nH]c2cccc(O)c12` [PSILOCIN], the figures for the maximum response (Emax) in experiment [1] and in experiment [3] were 72% and 73%, respectively. In experiment [2], the concentration giving a half-maximal response (EC50) was 9.9 nM.
Turning to `CN(C)CCc1c[nH]c2cccc(OP(=O)(O)O)c12` [PSILOCYBIN], in experiment [5], the Activity result was “Dose-dependent effect” and it took a dose of 0.4 mg/kg to reach the 50% effect level (ED50).
